Measured values reported in paper PMC6718736, “Validation of in vitro methods for human cytochrome P450 enzyme induction: Outcome of a multi-laboratory study” (Toxicology in Vitro, 2019).
Entries after “also recorded” stand apart in the source; their conditions may differ. Where two headings read alike, the source gives them in different places.

Key:
[1] = test system: CYP1A2; test: CYP1A2 enzyme induction assay in cryopreserved primary human hepatocytes (PHH); assay type: in vitro ADME; conditions: for Prediction in vivo inducer / Induction in vitro: CYP1A2, PHH; for Prediction in vivo inducer: Cmax/F2 >0.5 criterion; for Induction in vitro: positive in one donor in each of the three laboratories; for Assigned classification CYP1A2: PHH;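 on Assigned classification CYP1A2: code 1 means positive inducer and 0 means non-inducer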
[2] = test system: CYP2B6; test: CYP2B6 enzyme induction assay in cryopreserved primary human hepatocytes (PHH); assay type: in vitro ADME; conditions: for F2 / Induction in vitro / Prediction in vivo inducer: CYP2B6, PHH; for Assigned classification CYP2B6: PHH;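 on Assigned classification CYP2B6: code 1 means positive inducer and 0 means non-inducer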
[3] = cited from earlier work
[4] = test system: CYP1A2; conditions: cited from earlier work; for Induction in vivo: CYP1A2, human, ref Table 1; for CYP induction in vivo literature reference: CYP1A2: human in vivo, CYP named without remark = induced, ref references in the cell, Washington University database, Hoffmann et al. (2014), Pelkonen et al. (2008), Hukkanen et al. (2012)
[5] = test system: CYP2B6; conditions: cited from earlier work
[6] = test system: CYP1A2; test: CYP1A2 enzyme induction assay in cryopreserved HepaRG cells (phenacetin probe, LC/MS); assay type: in vitro ADME, human; conditions: for Prediction in vivo inducer / F2 / Induction in vitro: CYP1A2, HepaRG cells; for Prediction in vivo inducer: Cmax/F2 >0.5 criterion; for F2: in vitro concentration producing 2-fold induction; for Induction in vitro: positive in one batch in each of the three laboratories; for Assigned classification CYP1A2: HepaRG
[7] = test system: CYP2B6; test: CYP2B6 enzyme induction assay in cryopreserved HepaRG cells (bupropion probe, LC/MS); assay type: in vitro ADME, human; conditions: for Prediction in vivo inducer / F2 / Induction in vitro: CYP2B6, HepaRG cells; for Prediction in vivo inducer: Cmax/F2 >0.5 criterion; for F2: in vitro concentration producing 2-fold induction; for Induction in vitro: positive in one batch in each of the three laboratories; for Assigned classification CYP2B6: HepaRG
[8] = test system: CYP; conditions: cited from earlier work; for CYP induction in vitro (human hepatocytes): CYP isoforms induced, ref Abadie et al. (2009), Richert et al. (2010), Preissner et al. (2010), Hoffmann et al. (2014)
[9] = test system: CYP3A4; test: CYP3A4 enzyme induction assay in cryopreserved primary human hepatocytes (PHH); conditions: for Assigned classification CYP3A4: PHH
[10] = test system: CYP3A4; conditions: cited from earlier work; for CYP induction in vivo literature reference: CYP3A4: human in vivo, CYP named without remark = induced, ref references in the cell, Washington University database, Hoffmann et al. (2014), Pelkonen et al. (2008), Hukkanen et al. (2012)
[11] = test system: CYP3A4; test: CYP3A4 enzyme induction assay in cryopreserved HepaRG cells (midazolam probe, LC/MS); assay type: in vitro ADME, human; conditions: for Assigned classification CYP3A4: HepaRG
[12] = human in vivo plasma concentration, normal dose
[13] = human in vivo, normal dose (Table 10)

CO[C@H]1/C=C/O[C@@]2(C)Oc3c(C)c(O)c4c(O)c(c(/C=N/N5CCN(C)CC5)c(O)c4c3C2=O)NC(=O)/C(C)=C\C=C\[C@H](C)[C@H](O)[C@@H](C)[C@@H](O)[C@@H](C)[C@H](OC(C)=O)[C@@H]1C [Rifampicin]
Prediction in vivo inducer [1]: No
Prediction in vivo inducer ([1]; listed as rifampicin): non-inducer; also recorded: missed the in vivo prediction
Induction in vitro [1]: No
Assigned classification CYP1A2 ([1]; Lab 1, batch 0 6 A): 0
Assigned classification CYP1A2 ([1]; Lab 1, batch 4 0 8): 0
Assigned classification CYP1A2 ([1]; Lab 1, batch 8 0 8): 0
Assigned classification CYP1A2 ([1]; Lab 2, batch 0 6 A): 0
Assigned classification CYP1A2 ([1]; Lab 2, batch 4 0 8): 0
Assigned classification CYP1A2 ([1]; Lab 2, batch 8 0 8): 1
Assigned classification CYP1A2 ([1]; Lab 3, batch 0 6 A): 1
Assigned classification CYP1A2 ([1]; Lab 3, batch 4 0 8): 0
Assigned classification CYP1A2 ([1]; Lab 3, batch 8 0 8): 0
F2 [2]: 0.2 µM
Induction in vitro [2]: Yes
Prediction in vivo inducer [2]: Yes
Prediction in vivo inducer ([2]; Cmax/F2 >0.5 criterion): positive
Assigned classification CYP2B6 ([2]; Lab 1, batch 0 6 A): 1
Assigned classification CYP2B6 ([2]; Lab 1, batch 4 0 8): 1
Assigned classification CYP2B6 ([2]; Lab 1, batch 8 0 8): 1
Assigned classification CYP2B6 ([2]; Lab 2, batch 0 6 A): 1
Assigned classification CYP2B6 ([2]; Lab 2, batch 4 0 8): 0
Assigned classification CYP2B6 ([2]; Lab 2, batch 8 0 8): 1
Assigned classification CYP2B6 ([2]; Lab 3, batch 0 6 A): 1
Assigned classification CYP2B6 ([2]; Lab 3, batch 4 0 8): 1
Assigned classification CYP2B6 ([2]; Lab 3, batch 8 0 8): 1
Cmax [3, 12]: 8 to 12 µM
Cmax [3, 13]: 8 to 12 µM
Induction in vivo [4]: Yes
CYP induction in vivo literature reference: CYP1A2 [4]: CYP1A2
Induction in vivo ([5]; CYP2B6, human in vivo reference classification): Yes
Induction in vivo ([5]; CYP2B6, human, ref Table 1): Yes
CYP induction in vivo literature reference: CYP2B6 ([5]; human in vivo, CYP named without remark = induced, ref references in the cell, Washington University database, Hoffmann et al. (2014), Pelkonen et al. (2008), Hukkanen et al. (2012)): CYP2B6
Prediction in vivo inducer [6]: Yes
F2 [6]: 0.20 to 0.60 µM
Induction in vitro [6]: Yes
Assigned classification CYP1A2 ([6]; Lab 1, batch 20): 1
Assigned classification CYP1A2 ([6]; Lab 1, batch 35): 1
Assigned classification CYP1A2 ([6]; Lab 1, batch 36): 1
Assigned classification CYP1A2 ([6]; Lab 2, batch 20): 1
Assigned classification CYP1A2 ([6]; Lab 2, batch 35): 1
Assigned classification CYP1A2 ([6]; Lab 2, batch 36): 1
Assigned classification CYP1A2 ([6]; Lab 3, batch 20): 1
Assigned classification CYP1A2 ([6]; Lab 3, batch 35): 1
Assigned classification CYP1A2 ([6]; Lab 3, batch 36): 1
Prediction in vivo inducer [7]: Yes
Prediction in vivo inducer ([7]; listed as rifampicin): correctly classified
F2 [7]: 0.6 to 1.80 µM
Induction in vitro [7]: Yes
Assigned classification CYP2B6 ([7]; Lab 1, batch 20): 0
Assigned classification CYP2B6 ([7]; Lab 1, batch 35): 1
Assigned classification CYP2B6 ([7]; Lab 1, batch 36): 0
Assigned classification CYP2B6 ([7]; Lab 2, batch 20): 1
Assigned classification CYP2B6 ([7]; Lab 2, batch 35): 0
Assigned classification CYP2B6 ([7]; Lab 2, batch 36): 1
Assigned classification CYP2B6 ([7]; Lab 3, batch 20): 0
Assigned classification CYP2B6 ([7]; Lab 3, batch 35): 0
Assigned classification CYP2B6 ([7]; Lab 3, batch 36): 1

O=C1C(CC[S+]([O-])c2ccccc2)C(=O)N(c2ccccc2)N1c1ccccc1 (stereo not shown) [Sulfinpyrazone]
CYP2B6 induction in human hepatocytes ([8]; CYP2B6, ref Faucette et al., 2004): demonstrated
CYP induction in vitro (human hepatocytes) [8]: CYP1A2, CYP2B6, CYP3A4
F2 [2]: 33 µM
Cmax [3, 12]: 45 µM
Cmax [3, 13]: 45 µM
Induction in vivo [4]: Yes
CYP induction in vivo literature reference: CYP1A2 [4]: CYP1A2
F2 [6]: 11 µM
F2 [7]: 11.0 to 33.0 µM
F2 ([9]; CYP3A4, PHH): 3.66 µM
CYP induction in vivo literature reference: CYP3A4 [10]: CYP3A4
F2 ([11]; CYP3A4, HepaRG cells): 11 µM

COc1ccccc1Oc1c(NS(=O)(=O)c2ccc(C(C)(C)C)cc2)nc(-c2ncccn2)nc1OCCO [Bosentan hydrate]
Prediction in vivo inducer ([1]; listed as Bosentan): No
Prediction in vivo inducer ([1]; listed as bosentan): non-inducers
Induction in vitro [1]: No
Assigned classification CYP1A2 ([1]; Lab 1, batch 0 6 A): 0
Assigned classification CYP1A2 ([1]; Lab 1, batch 4 0 8): 0
Assigned classification CYP1A2 ([1]; Lab 1, batch 8 0 8): 0
Assigned classification CYP1A2 ([1]; Lab 2, batch 0 6 A): 0
Assigned classification CYP1A2 ([1]; Lab 2, batch 4 0 8): 0
Assigned classification CYP1A2 ([1]; Lab 2, batch 8 0 8): 1
Assigned classification CYP1A2 ([1]; Lab 3, batch 0 6 A): 1
Assigned classification CYP1A2 ([1]; Lab 3, batch 4 0 8): 0
Assigned classification CYP1A2 ([1]; Lab 3, batch 8 0 8): 0
CYP induction in vitro (human hepatocytes) [8]: CYP3A4
F2 [2]: 5.85 µM
Induction in vitro [2]: Yes
Prediction in vivo inducer [2]: Yes
Assigned classification CYP2B6 ([2]; Lab 1, batch 0 6 A): 1
Assigned classification CYP2B6 ([2]; Lab 1, batch 4 0 8): 1
Assigned classification CYP2B6 ([2]; Lab 1, batch 8 0 8): 1
Assigned classification CYP2B6 ([2]; Lab 2, batch 0 6 A): 1
Assigned classification CYP2B6 ([2]; Lab 2, batch 4 0 8): 0
Assigned classification CYP2B6 ([2]; Lab 2, batch 8 0 8): 1
Assigned classification CYP2B6 ([2]; Lab 3, batch 0 6 A): 1
Assigned classification CYP2B6 ([2]; Lab 3, batch 4 0 8): 1
Assigned classification CYP2B6 ([2]; Lab 3, batch 8 0 8): 1
Cmax [3, 12]: 5.8 µM
Cmax [3, 13]: 5.8 µM
Prediction in vivo inducer ([6]; listed as Bosentan): Yes
Prediction in vivo inducer ([6]; listed as bosentan): CYP1A2 induction would be expected
F2 [6]: 2.60 to 7.80 µM
Induction in vitro [6]: Yes
Assigned classification CYP1A2 ([6]; Lab 1, batch 20): 1
Assigned classification CYP1A2 ([6]; Lab 1, batch 35): 1
Assigned classification CYP1A2 ([6]; Lab 1, batch 36): 1
Assigned classification CYP1A2 ([6]; Lab 2, batch 20): 1
Assigned classification CYP1A2 ([6]; Lab 2, batch 35): 1
Assigned classification CYP1A2 ([6]; Lab 2, batch 36): 1
Assigned classification CYP1A2 ([6]; Lab 3, batch 20): 1
Assigned classification CYP1A2 ([6]; Lab 3, batch 35): 1
Assigned classification CYP1A2 ([6]; Lab 3, batch 36): 0
Prediction in vivo inducer ([7]; listed as Bosentan): Yes
Prediction in vivo inducer ([7]; listed as bosentan): predicted as positive inducers
F2 [7]: 2.60 to 7.80 µM
Induction in vitro [7]: Yes
Assigned classification CYP2B6 ([7]; Lab 1, batch 20): 1
Assigned classification CYP2B6 ([7]; Lab 1, batch 35): 1
Assigned classification CYP2B6 ([7]; Lab 1, batch 36): 0
Assigned classification CYP2B6 ([7]; Lab 2, batch 20): 1
Assigned classification CYP2B6 ([7]; Lab 2, batch 35): 0
Assigned classification CYP2B6 ([7]; Lab 2, batch 36): 0
Assigned classification CYP2B6 ([7]; Lab 3, batch 20): 0
Assigned classification CYP2B6 ([7]; Lab 3, batch 35): 1
Assigned classification CYP2B6 ([7]; Lab 3, batch 36): 0
F2 ([9]; CYP3A4, PHH): 0.65 to 1.95 µM
Induction in vitro ([9]; CYP3A4, PHH): Yes
Prediction in vivo inducer ([9]; CYP3A4, PHH): Yes
Assigned classification CYP3A4 ([9]; Lab 1, batch 0 6 A): 1
Assigned classification CYP3A4 ([9]; Lab 1, batch 4 0 8): 1
Assigned classification CYP3A4 ([9]; Lab 1, batch 8 0 8): 1
Assigned classification CYP3A4 ([9]; Lab 2, batch 0 6 A): 1
Assigned classification CYP3A4 ([9]; Lab 2, batch 4 0 8): 1
Assigned classification CYP3A4 ([9]; Lab 2, batch 8 0 8): 1
Assigned classification CYP3A4 ([9]; Lab 3, batch 0 6 A): 1
Assigned classification CYP3A4 ([9]; Lab 3, batch 4 0 8): 1
Assigned classification CYP3A4 ([9]; Lab 3, batch 8 0 8): 1
Induction in vivo ([10]; CYP3A4, human in vivo reference classification (Table 11)): Yes
CYP induction in vivo literature reference: CYP3A4 [10]: CYP1A2 NO studies CYP2B6 NO studies CYP 3A4 ([Weber et al., 1999a], [Weber et al., 1999b]; [van Giersbergen et al., 2002a], [van Giersbergen et al., 2002b]; Dingemanse and van Giersbergen, 2004)
F2 ([11]; CYP3A4, HepaRG cells): 0.29 µM
Induction in vitro ([11]; CYP3A4, HepaRG cells): Yes
Prediction in vivo inducer ([11]; CYP3A4, HepaRG cells): Yes
Assigned classification CYP3A4 ([11]; Lab 1, batch 20): 1
Assigned classification CYP3A4 ([11]; Lab 1, batch 35): 1
Assigned classification CYP3A4 ([11]; Lab 1, batch 36): 1
Assigned classification CYP3A4 ([11]; Lab 2, batch 20): 1
Assigned classification CYP3A4 ([11]; Lab 2, batch 35): 1
Assigned classification CYP3A4 ([11]; Lab 2, batch 36): 1
Assigned classification CYP3A4 ([11]; Lab 3, batch 20): 1
Assigned classification CYP3A4 ([11]; Lab 3, batch 35): 1
Assigned classification CYP3A4 ([11]; Lab 3, batch 36): 1
